Here are results for two molecules from patent publication US20040023981A1, “Salt forms with tyrosine kinase activity” (priority 2002, published 2004).

≈ marks a conversion by molar mass, not a printed value.

One series in a line: physchem. To be noted: thermodynamic from solid, room temperature.
The target in the next series is T1, human KDR (Homo sapiens, UniProt P35968).
T1 construct: cloning the cytoplasmic domain of the KDR kinase as an in frame fusion at the carboxy terminus of the GST gene; made in house; host or cells: Spodoptera frugiperda (Sf21) insect cells, baculovirus vector pAcG2T
Put plainly: VEGF Receptor Kinase Assay. Format: biochemical.

T1 sequence (P35968 786-1356 limits assumed): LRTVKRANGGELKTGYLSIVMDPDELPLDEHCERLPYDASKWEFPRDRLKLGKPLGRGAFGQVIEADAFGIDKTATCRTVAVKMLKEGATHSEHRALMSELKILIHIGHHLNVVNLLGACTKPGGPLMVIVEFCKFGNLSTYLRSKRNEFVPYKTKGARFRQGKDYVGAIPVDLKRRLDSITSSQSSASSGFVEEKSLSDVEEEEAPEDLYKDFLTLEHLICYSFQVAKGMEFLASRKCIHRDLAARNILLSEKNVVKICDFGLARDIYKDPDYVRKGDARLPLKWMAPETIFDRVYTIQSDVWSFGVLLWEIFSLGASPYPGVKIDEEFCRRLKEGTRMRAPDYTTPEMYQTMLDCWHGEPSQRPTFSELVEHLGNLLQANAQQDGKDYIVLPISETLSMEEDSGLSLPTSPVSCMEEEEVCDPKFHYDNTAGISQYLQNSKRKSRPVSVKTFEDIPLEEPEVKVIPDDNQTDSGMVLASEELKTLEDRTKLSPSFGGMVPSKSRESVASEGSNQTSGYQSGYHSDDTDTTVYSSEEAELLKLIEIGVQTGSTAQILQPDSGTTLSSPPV
Protocol for human KDR: VEGF receptor kinase activity is measured by incorporation of radio-labeled phosphate into polyglutamic acid, tyrosine, 4:1 (pEY) substrate. The phosphorylated pEY product is trapped onto a filter membrane and the incorporation of radio-labeled phosphate quantified by scintillation counting.
The intracellular tyrosine kinase domains of human KDR (Terman, B. I. et al. Oncogene (1991) vol. 6, pp. 1677-1683.) and Flt-1 (Shibuya, M. et al. Oncogene (1990) vol. 5, pp. 519-524) were cloned as glutathione S-transferase (GST) gene fusion proteins. This was accomplished by cloning the cytoplasmic domain of the KDR kinase as an in frame fusion at the carboxy terminus of the GST gene. Soluble recombinant GST-kinase domain fusion proteins were expressed in Spodoptera frugiperda (Sf21) insect cells (Invitrogen) using a baculovirus expression vector (pAcG2T, Pharmingen).
1) Add 5 μl of inhibitor or control to the assay in 50% DMSO.
2) Add 35 μl of reaction mix containing 5 μl of 10× reaction buffer, 5 μl 25 mM ATP/10 μCi [^33P]ATP (Amersham), and 5 μl 10× substrate.
3) Start the reaction by the addition of 10 μl of KDR (25 nM) in enzyme dilution buffer.
4) Mix and incubate at room temperature for 15 minutes.
5) Stop by the addition of 50 μl stop solution.
6) Incubate for 15 minutes at 4° C.
7) Transfer a 90 μl aliquot to filter plate.
8) Aspirate and wash 3 times with wash solution. […]

For orientation: solubility means the dissolved amount per volume that the medium holds. Read a high solubility as a readily soluble substance. With `CNC(=O)N1CCN(Cc2ccnc(Nc3ncc(C#N)s3)c2)CC1` [Form C, 4-[2-(5-cyano-thiazol-2-ylamino)-pyridin-4-ylmethyl]-piperazine-1-carboxylic acid methylamide], the solubility stood at 12.3 mg/mL (≈ 34.4 mM) in the series “physchem” (50% aqueous IPA, aqueous with cosolvent or surfactant or cyclodextrin); 10.4 mg/mL (≈ 29.1 mM) in “physchem” (50% aqueous ethanol, aqueous with cosolvent or surfactant or cyclodextrin); 6 mg/mL (≈ 16.8 mM) in “physchem” (water, pH 2.9, water).

For `CNC(=O)N1CCN(Cc2ccnc(Nc3ncc(C#N)s3)c2)CC1` [Compound 4-4, 4-[2-(5-cyano-thiazol-2-ylamino)-pyridin-4-ylmethyl]-piperazine-1-carboxylic acid methylamide], the kinase inhibitory activity entry on human KDR is reported as “inhibits the kinase KDR”.
